Article PMC8398805, “Chemical Characterization and Anti-HIV-1 Activity Assessment of Iridoids and Flavonols from Scrophularia trifoliata” (Molecules, 2021)
“And” between values parts separate entries of the source, which are not always exact repeats. Equal entries are not always repeated. Where two headings read alike, the source gives them in different places. Marks after values point to notes of the source that are not given here.

How the values were obtained:
[1] = biological target: T1, HIV-1 RT-associated RNase H activity (Human immunodeficiency virus type 1 group M subtype B, UniProt P04585); assay: RNase H polymerase-independent cleavage assay; assay type: biochemical; settings: for IC50: compound concentration required to inhibit the HIV-1 RNase H activity by 50%; for remaining activity at 100 µM: read-out: HIV-1 RNase H percentage of control
T1 construct: The 1:1 ration between the p66/p51 subunits was also verified; made in house; host or cells: E. coli strain M15 with the p6HRT-prot vector
Experimental: HIV-1 RT group M subtype B. Heterodimeric RT was expressed and purified essentially as previously described. Briefly, protein was expressed in E. coli strain M15 containing the p6HRT-prot vector, induced with 1.7 mM isopropyl β-D-1-thiogalactopyranoside for 4 h. Protein purification was carried out with a BioLogic LP system (Biorad), using a combination of immobilized metal affinity and ion exchange chromatography. First, crude bacterial extract was clarified by centrifugation and loaded onto a Ni^2+-NTA-Sepharose column pre-equilibrated with a loading buffer (50 mM sodium phosphate buffer pH 7.8, containing 0.3 M NaCl, 10% glycerol, and 10 mM imidazole); RT was eluted with an imidazole gradient in wash buffer (0–0.5 M). Fractions were collected and protein purity was checked by SDS-PAGE and found to be higher than 90%. The 1:1 ration between the p66/p51 subunits was also verified. Enzyme-containing fractions were pooled and diluted 1:1 with 50 mM sodium phosphate buffer pH 7.0, containing 10% glycerol, and then loaded into a Hi-trap heparin HP GE (Healthcare Lifescience) using a loading buffer (50 mM sodium phosphate buffer pH 7.0, containing 10% glycerol and 150 mM NaCl). RT was eluted with Elute Buffer 2 (50 mM Sodium Phosphate pH 7.0, 10% glycerol, 1 M NaCl). Fractions were collected and protein was dialyzed and stored in a buffer containing 50 mM Tris-HCl pH 7.0, 25 mM NaCl, 1 mM EDTA, and 50% glycerol. Catalytic activities and protein concentrations were determined. Enzyme-containing fractions were pooled and aliquots were stored at −80 °C.
HIV RT-associated RNase H activity was measured as described (using the RNase H inhibitor RDS175911 as a control.) In a 100 µL reaction volume containing 50 mM Tris-HCl buffer with pH 7.8, 6 mM MgCl2, 1 mM dithiothreitol (DTT), 80 mM KCl, 0.25 µM hybrid RNA/DNA 5′-[…]-Fluorescin-3′ (HPLC, dry, QC: Mass Check) (available from Metabion (Planegg, Germany)) 5′-Dabcyl-[…]-3′ (HPLC, dry, QC: Mass Check), there were increasing concentrations of an inhibitor, whose dilution was made in water, and 20 ng of wt RT, according to a linear range of dose-response curve. The reaction mixture was incubated for 1 h at 37 °C, stopped by the addition of EDTA, and products were measured with a multilabel counter plate reader Victor 3 (Perkin Elmer model 1420-051 (Waltham, MA, USA)) equipped with filters for 490/528 nm (excitation/emission wavelength).

[2] = biological target: T2, HIV-1 IN in the presence of LEDGF/p75 (Human immunodeficiency virus type 1 group M subtype B, UniProt P04585); assay: HTRF LEDGF-dependent integrase assay; assay type: biochemical; settings: for IC50: concentration required to inhibit IN catalytic activities, in the presence of LEDGF, by 50%; for remaining activity at 100 µM: in the presence of 100 µM compound concentration, read-out: HIV-1 IN LEDGF-dependent percentage of control
T2 construct: Recombinant 6xHis tagged IN protein was expressed and purified as described previously; 6xHis; made in house; host or cells: Escherichia coli BL21 (DE3) for IN
Experimental: Recombinant 6xHis tagged IN protein was expressed and purified as described previously. Briefly, IN was expressed in Escherichia coli strain BL21 (DE3). Initial purification was done using a Ni-Sepharose column with an imidazole gradient from 20 mM to 500 mM concentration in a 50 mM HEPES (pH 7.5) buffer containing 1 M NaCl, 7.5 mM CHAPS, and 2 mM β-mercaptoethanol. This was followed by a heparin column purification with a NaCl gradient from 0 to 1 M concentrations. His-LEDGF was purified by loading precipitate of cell lysate onto a heparin column and was eluted with an increasing NaCl gradient (200 mM to 1 M) in a 50 mM HEPES (pH 7.5) buffer containing 7.5 mM CHAPS and 2 mM β-mercaptoethanol. Peak fractions were pooled and loaded onto a Superdex 200 GL column and eluted in a buffer containing 50 mM HEPES (pH 7.5), 200 mM NaCl, and 2 mM β-mercaptoethanol. Fractions containing LEDGF were pooled and stored in 15% glycerol at −80 °C.
The HTRF assay allows measuring the inhibition of 3′-processing and strand-transfer IN reactions in the presence of recombinant LEDGF/p75 cellular cofactor [43]. Briefly, 50 nM IN was pre-incubated with an increasing concentration of compounds for 1 h at room temperature in reaction buffer containing 20 mM HEPES pH 7.5, 1 mM DTT, 1% Glycerol, 20 mM MgCl2, 0.05% Brij-35, and 0.1 mg/mL BSA. […] After the incubation, 4 nM of Europium-Streptavidin were added to the reaction mixture, and the HTRF signal was recorded using a Perkin Elmer Victor 3 plate reader using a 314 nm for the excitation wavelength and 668 and 620 nm for the wavelength of the acceptor and the donor substrate emission, respectively.

[3] = system: HIV-1 RT; settings: cited from earlier work
[4] = in the presence of 100 µM compound concentration

Molecule	IC50 [1]	remaining activity at 100 µM [1, 4]	IC50 [2]	remaining activity at 100 µM [2]	HIV-1 IN inhibition (in words) [2]	HIV-1 RNase H inhibition (in words) [1]	HIV-1 RT IC50 ([3]; baicalin from Scutellaria baicalensis)	HIV-1 RT IC50 ([3]; kaempferol from Securigera securidaca)	HIV-1 RNase H percentage of control [1, 4]
OC[C@H]1O[C@@H](O[C@@H]2OC=C[C@H]3[C@H](O)[C@@H]4O[C@]4(CO)[C@@H]23)[C@H](O)[C@@H](O)[C@@H]1O [Compound 1, catalpol]	> 100 µM	100%	> 100 µM	100%					
OCC1=C[C@@H](O)[C@@H]2C=CO[C@@H](O[C@@H]3O[C@H](CO)[C@@H](O)[C@H](O)[C@H]3O)[C@H]12 [Compound 2, aucubin]	> 100 µM	100%	> 100 µM	100%					
C[C@]1(O)C[C@@H](O)[C@@H]2C=CO[C@@H](O[C@@H]3O[C@H](CO)[C@@H](O)[C@H](O)[C@H]3O)[C@@H]21 [Compound 3, ajugol]	> 100 µM	100%	> 100 µM	77%					
CO[C@H]1[C@@H]2C=CO[C@@H](O[C@@H]3O[C@H](CO)[C@@H](O)[C@H](O)[C@H]3O)[C@@H]2[C@@]2(CO)O[C@@H]12 [Compound 4, methylcatalpol]	> 100 µM	100%	> 100 µM	80%					
COC1C2C=COC(OC3OC(CO)C(O)C(O)C3O)C2C2(O)COC12 (stereo not shown) [Compound 5, trifoliatoside A]	> 100 µM	93%	95.5 ± 4.5 µM		able to inhibit IN, selectively				
CO[C@H]1[C@@H]2C[C@@H]3OC[C@](O)([C@H]2[C@H](O[C@@H]2O[C@H](CO)[C@@H](O)[C@H](O)[C@H]2O)O3)[C@@H]1O [Compound 6, methylscutelloside]	> 100 µM	100%	100 ± 0.5 µM						
CC(=O)O[C@@]1(C)C[C@@H](O)C2C=CO[C@@H](O[C@@H]3O[C@H](CO)[C@@H](O)[C@H](O)[C@H]3O)C21 (stereo partly shown) [Compound 7, ajugoside]	> 100 µM	100%	74 ± 3.5 µM		able to inhibit IN, selectively				
C[C@@H]1O[C@@H](OC[C@H]2O[C@@H](Oc3c(-c4ccc(O)c(O)c4)oc4cc(O)cc(O)c4c3=O)[C@H](O)[C@@H](O)[C@@H]2O)[C@H](O)[C@H](O)[C@H]1O [Compound 8, rutin]	> 100 µM	100%	0.33 ± 0.04 µM		submicromolar concentration				
CC1OC(Oc2cc(O)c3c(=O)c(OC4OC(CO)C(O)C(O)C4O)c(-c4ccc(O)cc4)oc3c2)C(O)C(O)C1O (stereo not shown) [Compound 9, kaempferol-7-O-rhamnosyl-3-O-glucopyranoside]	> 100 µM	100%	0.024 µM and 0.11 µM		submicromolar concentration				
O=c1c(OC2O[C@H](CO)[C@@H](O)[C@H](O)[C@H]2O)c(-c2ccc(O)cc2)oc2cc(O)cc(O)c12 (stereo partly shown) [Compound 11, kaempferol-3-O-glucopyranoside]	> 100 µM	100%	0.11 µM and 0.024 µM		submicromolar concentration				
C[C@]1(OC(=O)/C=C/c2ccccc2)C[C@@H](O)C2C=CO[C@@H](O[C@@H]3O[C@H](CO)[C@@H](O)[C@H](O)[C@H]3O)C21 (stereo partly shown) [Compound 12, laterioside]	> 100 µM	100%	> 100 µM	80%	inactive	inactive			
C[C@]1(OC(=O)/C=C\c2ccccc2)C[C@@H](O)C2C=CO[C@@H](O[C@@H]3O[C@H](CO)[C@@H](O)[C@H](O)[C@H]3O)C21 (stereo partly shown) [Compound 13, trifoliatoside B]	> 100 µM	92%	5.96 ± 0.1 µM						
CCOC(=O)C(=O)CC(=O)/C=C/c1cccn1Cc1ccccc1Cl [RDS1759, reference compound]	7.3 ± 0.1 µM								
O=C(O)[C@H]1O[C@@H](Oc2cc3oc(-c4ccccc4)cc(=O)c3c(O)c2O)[C@H](O)[C@@H](O)[C@@H]1O [baicalin]							0.2 µg/mL		
O=c1c(O)c(-c2ccc(O)cc2)oc2cc(O)cc(O)c12 [kaempferol]								50 µg/mL	
kaempferol-3-O-rutinoside [Compound 10]									>100 (100%) ^c
